What was measured:
[1] = test system: SD rats; assay: Water maze experiment (learning ability); format: in vivo; conditions: 2.0% in feed for 10 days
Method: The sphingomyelin raw material obtained in Example 1 was used to conduct a water maze experiment for the purpose of examining the influence of orally taken sphingomyelin on learned behavior. […] First, 8-week-old male SD rats (Charles River Laboratories, Japan) were preliminarily raised for 7 days using a standard diet (AIN-93G) and then divided into 3 groups each containing 6 individuals. In this context, the rats were raised under conditions involving room temperature of 24° C., humidity of 60%, and light-dark (12 hour/12 hour) control and were allowed to freely take deionized water. [table] Subsequently, a “water filled multiple T-maze” was prepared by arranging combined T-mazes with 11 choice points in a water tank of 120 cm long, 120 cm wide, and 40 cm deep. A water maze experiment was conducted at a water temperature of 23 to 24° C. according to the method of Ishizaki (Ishizaki, Exp. Anim., vol. 27, pp. 9-12, 1978). First, the rats were separately acclimatized by 5 trials in a straight waterway a day before the test. Next, each rat was given 3 trials in the water maze for 4 consecutive days of the test. The length of time taken to swim from the start to the goal of the water maze was measured.

[2] = test system: enteropathogenic E. coli O-157; assay: Test I on prevention of enteropathogenic E. coli O-157 infection; format: in vivo; conditions: BALB/c germ-free mice, 5 mg/day oral
Method: Test I on prevention of enteropathogenic E. coli O-157 infection
The intake of sphingomyelin was 5 mg/day. On the 3rd day from the start of taking, the mice were infected with enteropathogenic E. coli O-157 by oral administration at a dose of 8.5×10^6 cfu/mouse. After infection, the mice were also allowed to orally take sphingomyelin on a daily basis. […] The survival rate of the […] depending on the number of days after the administration of enteropathogenic E. coli O-157 is shown in Table 7. As is evident from the results of Table 7, the survival rate of the germ-free mice was enhanced by the administration of sphingomyelin.

Question: Which “Length of time taken to swim to goal” value ([1]; 1st day) does the source give for sphingomyelin here?
Answer: The value was 33 ± 10 s.

Question: What about the “Length of time taken to swim to goal” value ([1]; 2nd day) of the same substance?
Answer: Its value is 25 ± 6 s.

Question: What about the “Length of time taken to swim to goal” value ([1]; 3rd day) of the same substance?
Answer: Its value is 18 ± 5 s.

Question: What about the “Length of time taken to swim to goal” value ([1]; 4th day) of the same substance?
Answer: Its value is 17 ± 6 s.

Question: And the Survival rate ([2]; 0 days after administration of E. coli)?
Answer: The Survival rate was 100%.

Question: And the Survival rate ([2]; 2 days after administration of E. coli)?
Answer: Its Survival rate is 100%.

Question: What about the Survival rate ([2]; 4 days after administration of E. coli) of the same substance?
Answer: Its Survival rate is 100%.

Question: And the Survival rate ([2]; 6 days after administration of E. coli)?
Answer: Its Survival rate is 80%.

Question: And the Survival rate ([2]; 8 days after administration of E. coli)?
Answer: Its Survival rate is 70%.

— patent publication US8486916B2, “Medicine, food and drink or feed containing sphingomyelin” (Megmilk Snow Brand Co., Ltd., priority 2005, dated 2013)
